A word on the pIC50: it is the IC50 on a negative log10 scale, so that one unit is a factor of ten. High values mean a low IC50, low ones a high IC50.

One assay deals with T1, BRD4(1) bromodomain (Homo sapiens, UniProt O60885).
T1 construct: final concentrations of His-BRD4(1) at 20 nM
In words: AlphaScreen in vitro binding assay with BRD4. As to conditions: isolated BRD4 bromodomain, means of at least two determinations. Here is the method: (§1) To determine the binding selectivity of compounds provided, AlphaScreen in vitro binding assays were performed with either CBP or BRD4.
Assays were performed with minor modifications from the manufacturer's protocol (Perkin Elmer, USA). All reagents were diluted in AlphaScreen™ buffer (50 mM HEPES, 150 mM NaCl, 0.01% v/v Tween-20, 0.1% w/v BSA, pH 7.4). After addition of Alpha beads to master solutions, all subsequent steps were performed under low light conditions. […] Plates were spun down at 1000 rpm. A 10-point 1: √{square root over (sqrt(10))} serial dilution of compounds in DMSO was prepared at 200× the final concentration. 100 nL of compound from these stock plates were added by pin transfer using a Janus Workstation (PerkinElmer). A 2× solution of streptavidin-coated donor beads with a final concentration of 10 μg/ml was added in a 10 μL volume. The plates were spun down again at 1000 rpm and sealed with foil to prevent light exposure and evaporation. The plates were then incubated at room temperature for 1 hour and read on an Envision 2104 (PerkinElmer) using the manufacturer's protocol. IC50 values were calculated using a 4-parameter logistic curve in Prism 6 (GraphPad Software, USA) after normalization to DMSO-treated negative control wells.
(In general: In Alpha technology, singlet oxygen from a donor bead excites a nearby acceptor bead.)

The next assay has as its target T2, CBP bromodomain (Homo sapiens, UniProt Q92793).
T2 construct: docked complex of Compound 21 with CBP bromodomain
As to the kind of experiment: AlphaScreen in vitro binding assay with CBP. The note with it: for pIC50: AlphaScreen, isolated CBP bromodomain, means of at least two determinations; for Selectivity Value [BRD4(1) IC50 (μM)/CBP IC50 (μM)]: ratio BRD4(1) IC50 / CBP IC50. The method, then: as §1
Assays were performed with minor modifications from the manufacturer's protocol (Perkin Elmer, USA). All reagents were diluted in AlphaScreen™ buffer (50 mM HEPES, 150 mM NaCl, 0.01% v/v Tween-20, 0.1% w/v BSA, pH 7.4). After addition of Alpha beads to master solutions, all subsequent steps were performed under low light conditions. A 2× solution of components with final concentrations of His-BRD4(1) at 20 nM or His-CBP at 50 nM, Ni-coated Acceptor bead at 10 μg/ml, and biotinylated-JQ1 at 10 nM or biotinylated peptide at 100 nM was added in 10 μL to 384-well plates (AlphaPlate-384, PerkinElmer) using an EL406 liquid handler (Biotek, USA). Plates were spun down at 1000 rpm. A 10-point 1: √{square root over (sqrt(10))} serial dilution of compounds in DMSO was prepared at 200× the final concentration. 100 nL of compound from these stock plates were added by pin transfer using a Janus Workstation (PerkinElmer). A 2× solution of streptavidin-coated donor beads with a final concentration of 10 μg/ml was added in a 10 μL volume. The plates were spun down again at 1000 rpm and sealed with foil to prevent light exposure and evaporation. The plates were then incubated at room temperature for 1 hour and read on an Envision 2104 (PerkinElmer) using the manufacturer's protocol. IC50 values were calculated using a 4-parameter logistic curve in Prism 6 (GraphPad Software, USA) after normalization to DMSO-treated negative control wells.

The structures appear in SMILES notation. pIC50: −log10 of the molar value.

T2 sequence (Q92793 1085-1192 limits assumed): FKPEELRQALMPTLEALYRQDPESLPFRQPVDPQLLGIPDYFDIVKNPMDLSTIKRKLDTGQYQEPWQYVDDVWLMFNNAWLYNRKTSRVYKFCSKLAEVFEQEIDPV

`COc1ccc(CCc2nc3cc(-c4c(C)noc4C)ccn3c2NC2CCCCC2)cc1OC` [Compound 33]: on BRD4(1) bromodomain, the pIC50 is 5.21. Moreover, at CBP bromodomain, the negative logarithm of the IC50 (pIC50) was 6.12 and the “Selectivity Value [BRD4(1) IC50 (μM)/CBP IC50 (μM)]” value (from here on “Selectivity Value”) is listed as 8.
With `COc1ccc(-c2nc3cc(-c4c(C)noc4C)ccn3c2NC23CC4CC(CC(C4)C2)C3)cc1` [Compound 2], on CBP bromodomain, the negative-log IC50 (pIC50) is 5.65 and the “Selectivity Value” value is recorded as more than 23.
Consider `CCCOc1ccc(CCc2nc3cc(-c4c(C)noc4C)ccn3c2NC2CCCCC2)cc1` [Compound 23], for which, at BRD4(1) bromodomain, the negative logarithm of the IC50 (pIC50) is 4.75. Further, on CBP bromodomain, the negative logarithm of the IC50 (pIC50) was 6.20 and the “Selectivity Value” value turned out to be 28.
On BRD4(1) bromodomain, `CN1Cc2cc(-c3ccn4c(NC5CCCCC5)c(CCc5ccccc5)nc4c3)ccc2NC1=O` [Compound 10] showed a pIC50 of 5.12. On CBP bromodomain, the pIC50 is 5.09 and the “Selectivity Value” value is on record as less than 1.
For `COc1ccc(CCCc2nc3cc(-c4c(C)noc4C)ccn3c2NC2CCCCC2)cc1` [Compound 27, N-cyclohexyl-7-(3,5-dimethylisoxazol-4-yl)-2-(3-(4-methoxyphenyl)propyl)imidazo[1,2-a]pyridin-3-amine], on BRD4(1) bromodomain, the negative-log IC50 (pIC50) was 4.91. On CBP bromodomain, the pIC50 is 5.31 and the “Selectivity Value” value came out at 3.
Turning to `COc1ccc(CCCc2nc3cc(-c4c(C)noc4C)ccn3c2NC(C)(C)CC(C)(C)C)cc1` [Compound 35], on CBP bromodomain, the “Selectivity Value” value is given as 1.
With `Cc1noc(C)c1-c1ccn2c(NC34CC5CC(CC(C5)C3)C4)c(CCc3ccccc3)nc2c1` [Compound 6], the results for the pIC50 at BRD4(1) bromodomain and at CBP bromodomain were 5.47 and 6.29, respectively. Further, the “Selectivity Value” value on CBP bromodomain is 7.
On the same counts, the results for `COc1ccc(-c2nc3cc(-c4c(C)noc4C)ccn3c2NCC(=O)OC(C)(C)C)cc1` [Compound 7] are 5.53, 5.93 and 3.
On the same counts, the results for `COc1ccc(CCc2nc3cc(-c4c(C)noc4C)ccn3c2Nc2ccc(Cl)cc2)cc1` [Compound 25] are 5.10, 5.79 and 5.
In the case of `Cc1noc(C)c1-c1ccn2c(NC(C)(C)CC(C)(C)C)c(CCc3ccc(OC(C)C)cc3)nc2c1` [Compound 30], the “Selectivity Value” value on CBP bromodomain stood at 1.
The molecule `Cc1noc(C)c1-c1ccn2c(NC(C)(C)C)c(CCc3ccccc3)nc2c1` [Compound 14, N-(tert-butyl)-7-(3,5-dimethylisoxazol-4-yl)-2-phenethylimidazo[1,2-a]pyridin-3-amine] had a negative-log IC50 (pIC50) on BRD4(1) bromodomain of 5.25. At CBP bromodomain, the pIC50 was 6.02 and the “Selectivity Value” value was 6.
With `Cc1noc(C)c1-c1ccn2c(NCC(=O)OC(C)(C)C)c(CCc3ccccc3)nc2c1` [Compound 4], at CBP bromodomain, the negative-log IC50 (pIC50) is 5.11 and the “Selectivity Value” value was more than 6.
Regarding `COc1ccc(CCc2nc3cc(-c4c(C)noc4C)ccn3c2NC(C)(C)C)cc1` [Compound 20], on CBP bromodomain, the pIC50 was 5.63 and the “Selectivity Value” value is reported as more than 21.
Turning to `Cc1noc2ccc(-c3ccn4c(NC5CCCCC5)c(CCc5ccccc5)nc4c3)cc12` [Compound 12], the pIC50 at BRD4(1) bromodomain was 5.52; on CBP bromodomain, less than 4.30. Further, at CBP bromodomain, the “Selectivity Value” value was less than 1.
On the same counts, the results for `CCOc1ccc(CCc2nc3cc(-c4c(C)noc4C)ccn3c2NC2CCCCC2)cc1` [Compound 22, N-cyclohexyl-7-(3,5-dimethylisoxazol-4-yl)-2-(4-ethoxyphenethyl)imidazo[1,2-a]pyridin-3-amine] are 5.19, 6.67 and 30.
On the same counts, the results for `Cc1noc(C)c1-c1ccn2c(NC3CCCCC3)c(CCc3ccc(OC(C)C)cc3)nc2c1` [Compound 36] are 5.09, 6.13 and 11.
`COc1ccc(CCc2nc3cc(-c4c(C)noc4C)ccn3c2NCC(=O)OC(C)(C)C)cc1` [Compound 15]: the negative logarithm of the IC50 (pIC50) on BRD4(1) bromodomain was 5.37. At CBP bromodomain, the pIC50 was 5.81 and the “Selectivity Value” value stood at 3.
In the case of `CCOc1ccc(CCc2nc3cc(-c4c(C)noc4C)ccn3c2NC(C)(C)CC(C)(C)C)cc1Cl` [Compound 32], at CBP bromodomain, the negative-log IC50 (pIC50) is 4.69 and the “Selectivity Value” value is more than 2.
`COc1ccc(Cc2nc3cc(-c4c(C)noc4C)ccn3c2NC2CCCCC2)cc1` [Compound 26]: the negative-log IC50 (pIC50) at BRD4(1) bromodomain was 4.95; at CBP bromodomain, 5.22. In addition, the “Selectivity Value” value at CBP bromodomain was found to be 2.
For the molecule `CCOc1ccc(CCc2nc3cc(-c4c(C)noc4C)ccn3c2NC2CCCCC2)cc1Cl` [Compound 31], at CBP bromodomain, the pIC50 was 5.60 and the “Selectivity Value” value turned out to be 20.
Molecule `COc1ccc(CCc2nc3cc(-c4c(C)noc4C)ccn3c2N[C@H](C)c2ccccc2)cc1` [Compound 37] showed a pIC50 on BRD4(1) bromodomain of 4.96. Besides, at CBP bromodomain, the pIC50 was 5.80 and the “Selectivity Value” value is given as 7.
Consider `COc1ccc(-c2nc3cc(C)cc(C)n3c2NC23CC4CC(CC(C4)C2)C3)cc1` [Compound 1, N-((3s,5s,7s)-adamantan-1-yl)-2-(4-methoxyphenyl)-5,7-dimethylimidazo[1,2-a]pyridin-3-amine], for which, at CBP bromodomain, the pIC50 was 4.79 and the “Selectivity Value” value was more than 3.
The molecule `Cc1sc2c(c1C)C(c1ccc(Cl)cc1)=N[C@@H](CC(=O)OC(C)(C)C)c1nnc(C)n1-2` [JQ1, reference compound] gave a pIC50 at CBP bromodomain of less than 4.30.
As to `Cc1[nH]nc2ccc(-c3ccn4c(NC5CCCCC5)c(CCc5ccccc5)nc4c3)cc12` [Compound 11], on BRD4(1) bromodomain, the negative logarithm of the IC50 (pIC50) was 6.29. Besides, on CBP bromodomain, the pIC50 is 5.10 and the “Selectivity Value” value is less than 1.
Consider `COc1ccc(-c2nc3cc(-c4c(C)noc4C)ccn3c2NC2CCCCC2)cc1` [Compound 3], for which, at CBP bromodomain, the pIC50 is 4.85 and the “Selectivity Value” value is reported as more than 4.
Consider `COc1ccc(CCc2nc3cc(-c4c(C)noc4C)ccn3c2NC(C)C)cc1` [Compound 19, 7-(3,5-dimethylisoxazol-4-yl)-N-isopropyl-2-(4-methoxyphenethyl)imidazo[1,2-a]pyridin-3-amine], for which the negative-log IC50 (pIC50) at BRD4(1) bromodomain was 5.00. Also, at CBP bromodomain, the pIC50 was 6.53 and the “Selectivity Value” value is reported as 34.
For `CCOc1ccc(CCc2nc3cc(-c4c(C)noc4C)ccn3c2NC(C)(C)CC(C)(C)C)cc1` [Compound 29, 7-(3,5-dimethylisoxazol-4-yl)-2-(4-ethoxyphenethyl)-N-(2,4,4-trimethylpentan-2-yl)imidazo[1,2-a]pyridin-3-amine], the negative logarithm of the IC50 (pIC50) was less than 4.30 on BRD4(1) bromodomain and 4.41 on CBP bromodomain. On CBP bromodomain, the “Selectivity Value” value was more than 1.
Turning to `COc1ccc(-c2nc3cc(C)cc(C)n3c2NC(C)(C)CC(C)(C)C)cc1` [Compound 8, 2-(4-methoxyphenyl)-5,7-dimethyl-N-(2,4,4-trimethylpentan-2-yl)imidazo[1,2-a]pyridin-3-amine], on CBP bromodomain, the negative-log IC50 (pIC50) is 4.79 and the “Selectivity Value” value is given as more than 3.
On the same counts, the results for `COc1ccc(CCc2nc3cc(-c4c(C)noc4C)ccn3c2NC(C)(C)CC(C)(C)C)cc1` [Compound 28, 7-(3,5-dimethylisoxazol-4-yl)-2-(4-methoxyphenethyl)-N-(2,4,4-trimethylpentan-2-yl)imidazo[1,2-a]pyridin-3-amine] are 4.68 and more than 2.
Consider `COc1ccc(CCc2nc3cc(-c4c(C)noc4C)ccn3c2NC2CCCCC2)cc1Cl` [Compound 21, 2-(3-chloro-4-methoxyphenethyl)-N-cyclohexyl-7-(3,5-dimethylisoxazol-4-yl)imidazo[1,2-a]pyridin-3-amine], for which the negative logarithm of the IC50 (pIC50) at BRD4(1) bromodomain is 5.28.

The values are drawn from patent publication US11098043B2, “Certain imidazopyridines as cyclic AMP response element binding (CREB) binding protein (CBP) inhibitors and uses thereof” (University of Massachusetts, priority 2017, dated 2021).
